Two molecules from PMC4937658, “Effects of dalfampridine and its metabolites on cloned human potassium channels Kv 1.1, Kv 1.2, and Kv 1.4 expressed in human embryonic kidney cells” (Journal of Drug Assessment, 2013) can be followed below.

Structures can show the parent of a compound that is named as a salt.

Common to all, as to experiment: automated whole-cell patch clamp (PatchXpress), peak current
Holding throughout (format): cell-based
(In general: Patch clamp records ionic current or voltage across a cell membrane.)

The target in one assay is T1, Kv 1.4 (Homo sapiens, UniProt P22459).
T1 construct: gene KCNA4; cDNA stably transfected in HEK293 cells; expressed alone (homotetramer)
T1 sequence (P22459 whole entry): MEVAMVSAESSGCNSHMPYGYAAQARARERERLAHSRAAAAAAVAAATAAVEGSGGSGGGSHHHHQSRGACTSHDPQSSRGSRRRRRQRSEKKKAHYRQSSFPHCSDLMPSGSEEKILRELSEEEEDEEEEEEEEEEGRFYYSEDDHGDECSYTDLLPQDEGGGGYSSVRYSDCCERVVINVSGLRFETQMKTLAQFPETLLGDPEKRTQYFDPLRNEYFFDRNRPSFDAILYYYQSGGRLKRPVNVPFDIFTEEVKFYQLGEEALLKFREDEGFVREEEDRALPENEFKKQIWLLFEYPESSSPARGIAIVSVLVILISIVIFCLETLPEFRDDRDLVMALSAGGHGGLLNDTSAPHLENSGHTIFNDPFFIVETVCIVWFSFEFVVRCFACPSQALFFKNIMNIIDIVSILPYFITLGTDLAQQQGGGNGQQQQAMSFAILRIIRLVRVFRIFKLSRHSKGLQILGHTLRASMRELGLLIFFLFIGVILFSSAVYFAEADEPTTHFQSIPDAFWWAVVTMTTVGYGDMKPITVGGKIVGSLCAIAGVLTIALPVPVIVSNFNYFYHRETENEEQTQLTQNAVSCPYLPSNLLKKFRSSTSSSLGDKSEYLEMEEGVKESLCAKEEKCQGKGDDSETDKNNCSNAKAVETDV
An excerpt:
automated whole-cell patch clamp (PatchXpress), peak current on Kv 1.4

The target of a further assay is T2, Kv 1.2 (Homo sapiens, UniProt P16389).
T2 construct: gene KCNA2; cDNA stably transfected in HEK293 cells; expressed alone (homotetramer)
T2 sequence (P16389 whole entry): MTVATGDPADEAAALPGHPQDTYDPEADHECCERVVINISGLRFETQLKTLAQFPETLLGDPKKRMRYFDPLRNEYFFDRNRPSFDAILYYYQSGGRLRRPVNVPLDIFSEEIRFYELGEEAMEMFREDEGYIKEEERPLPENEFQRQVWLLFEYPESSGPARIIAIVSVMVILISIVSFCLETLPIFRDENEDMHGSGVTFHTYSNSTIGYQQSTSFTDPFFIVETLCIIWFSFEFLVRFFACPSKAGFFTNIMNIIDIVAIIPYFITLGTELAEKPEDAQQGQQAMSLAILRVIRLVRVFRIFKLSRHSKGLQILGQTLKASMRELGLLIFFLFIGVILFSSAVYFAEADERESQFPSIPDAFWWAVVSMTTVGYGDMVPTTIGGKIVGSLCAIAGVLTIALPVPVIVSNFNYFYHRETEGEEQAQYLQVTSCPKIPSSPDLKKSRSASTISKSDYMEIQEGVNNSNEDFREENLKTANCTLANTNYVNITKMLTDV
The text has this:
automated whole-cell patch clamp (PatchXpress), peak current on Kv 1.2

Another assay addresses T3, Kv 1.1 (Homo sapiens, UniProt Q09470).
T3 construct: gene KCNA1; cDNA stably transfected in HEK293 cells; expressed alone (homotetramer)
An excerpt:
automated whole-cell patch clamp (PatchXpress), peak current on Kv 1.1

T3 sequence (Q09470 whole entry): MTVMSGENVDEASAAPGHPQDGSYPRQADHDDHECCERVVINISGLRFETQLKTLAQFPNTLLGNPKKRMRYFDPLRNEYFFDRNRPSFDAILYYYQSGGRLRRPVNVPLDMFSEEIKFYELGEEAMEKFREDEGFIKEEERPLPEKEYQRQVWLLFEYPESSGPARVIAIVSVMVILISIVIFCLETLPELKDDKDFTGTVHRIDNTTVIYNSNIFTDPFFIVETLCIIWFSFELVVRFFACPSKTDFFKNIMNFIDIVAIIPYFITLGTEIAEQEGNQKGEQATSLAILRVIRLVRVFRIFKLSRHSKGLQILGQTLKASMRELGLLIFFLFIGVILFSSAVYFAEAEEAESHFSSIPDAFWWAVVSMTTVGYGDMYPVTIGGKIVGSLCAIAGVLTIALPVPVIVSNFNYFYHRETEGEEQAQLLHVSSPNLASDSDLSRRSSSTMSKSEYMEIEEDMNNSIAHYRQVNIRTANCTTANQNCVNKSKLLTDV

Take `Nc1ccncc1O` [3-hydroxy-4-aminopyridine]: the figures for the IC50 on Kv 1.4, against Kv 1.2 and against Kv 1.1 were 23200 µM, 23700 µM and 7890 µM, respectively.
For `Nc1ccncc1OS(=O)(=O)O` [3-hydroxy-4-aminopyridine sulfate], in that order: > 50000 µM, 21400 µM and 30300 µM.
